Experimental data taken from patent publication US20080009418A1, “Selective Inhibitors” (Alchemia LTD., priority 2004, published 2008).

What was measured:
Human δ-opioid (DOP) = biological target: T1, Human δ-opioid (DOP) (Homo sapiens, UniProt P41143); assay: Radioligand binding, human δ-opioid (DOP) membranes, FlashPlate, [3H]-Bremazocine; details: compound at 10 μM, [3H]-Bremazocine
T1 construct: purchased Perkin Elmer Biosignal
Procedure, shortened: (§1)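 Cloned human receptor membranes were coated onto FlashPlate wells and incubated with radioligand and compound (added from a 0.5 mM DMSO daughter plate) for 1 hour at room temperature in the dark. Scintillation counting gave percent inhibition, with DMSO defining total and reference ligand defining non-specific binding.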

Human κ-Opioid (KOP) = biological target: T2, Human κ-Opioid (KOP) (Homo sapiens, UniProt P41145); assay: Radioligand binding, human κ-opioid (KOP) membranes, filtration, [3H]-Diprenorphine; details: compound at 10 μM, [3H]-Diprenorphine
T2 construct: purchased Perkin Elmer Biosignal
T2 sequence (P41145 whole entry): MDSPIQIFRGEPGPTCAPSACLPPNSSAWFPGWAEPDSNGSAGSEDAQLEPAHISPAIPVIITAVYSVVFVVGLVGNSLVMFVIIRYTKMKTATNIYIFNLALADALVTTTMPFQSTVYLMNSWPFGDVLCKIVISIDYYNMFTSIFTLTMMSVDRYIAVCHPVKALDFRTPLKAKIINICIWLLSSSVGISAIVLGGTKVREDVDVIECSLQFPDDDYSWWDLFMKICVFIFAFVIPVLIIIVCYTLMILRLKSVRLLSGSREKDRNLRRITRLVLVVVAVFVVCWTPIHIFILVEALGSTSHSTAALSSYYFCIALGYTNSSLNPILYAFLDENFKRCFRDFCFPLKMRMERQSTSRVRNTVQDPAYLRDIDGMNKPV
Procedure, shortened: (§2)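 Filtration binding on cloned human receptor membranes (1 Unit/well), [125I]-Substance P for NK1 and [3H]-Diprenorphine for KOP, 1 h at room temperature. Filters PEI-presoaked, washed with cold 50 mM Tris-HCl pH 7.4, counted by scintillation; percent inhibition calculated, reference ligand defining non-specific binding.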

Human Melanocortin (MC3) = biological target: T3, Human Melanocortin (MC3) (Homo sapiens, UniProt P41968); assay: Radioligand binding, human melanocortin MC3 membranes, FlashPlate, [125I]-NDP-αMSH; details: compound at 10 μM, [125I]-NDP-αMSH
T3 construct: purchased Perkin Elmer Biosignal
T3 sequence (P41968 whole entry): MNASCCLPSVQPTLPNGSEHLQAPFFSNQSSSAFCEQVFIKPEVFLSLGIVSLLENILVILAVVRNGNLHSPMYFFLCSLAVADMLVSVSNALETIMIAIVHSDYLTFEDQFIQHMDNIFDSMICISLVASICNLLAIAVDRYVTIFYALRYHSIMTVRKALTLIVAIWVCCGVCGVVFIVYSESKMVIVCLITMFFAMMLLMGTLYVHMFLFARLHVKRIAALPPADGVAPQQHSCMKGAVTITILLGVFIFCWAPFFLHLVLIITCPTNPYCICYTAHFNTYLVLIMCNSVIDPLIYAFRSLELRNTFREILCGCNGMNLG
Procedure, shortened: as §1

Human Melanocortin (MC4) = biological target: T4, Human Melanocortin (MC4) (Homo sapiens, UniProt P32245); assay: Radioligand binding, human melanocortin MC4 membranes, FlashPlate, [125I]-NDP-αMSH; details: compound at 10 μM, [125I]-NDP-αMSH
T4 construct: purchased Perkin Elmer Biosignal
T4 sequence (P32245 whole entry): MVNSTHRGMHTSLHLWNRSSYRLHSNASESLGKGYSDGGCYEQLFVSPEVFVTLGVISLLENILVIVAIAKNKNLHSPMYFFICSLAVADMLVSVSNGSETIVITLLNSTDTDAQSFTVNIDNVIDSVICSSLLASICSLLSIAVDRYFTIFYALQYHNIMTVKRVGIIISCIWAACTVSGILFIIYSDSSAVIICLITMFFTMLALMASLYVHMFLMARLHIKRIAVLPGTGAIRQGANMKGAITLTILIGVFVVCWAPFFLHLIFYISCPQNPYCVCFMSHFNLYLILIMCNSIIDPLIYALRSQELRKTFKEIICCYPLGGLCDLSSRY
Procedure, shortened: as §1

Human melanocortin (MC5) = biological target: T5, Human melanocortin (MC5) (Homo sapiens, UniProt P33032); assay: Radioligand binding, human melanocortin MC5 membranes, FlashPlate, [125I]-NDP-αMSH; details: compound at 10 μM, [125I]-NDP-αMSH
T5 construct: purchased Perkin Elmer Biosignal
T5 sequence (P33032 whole entry): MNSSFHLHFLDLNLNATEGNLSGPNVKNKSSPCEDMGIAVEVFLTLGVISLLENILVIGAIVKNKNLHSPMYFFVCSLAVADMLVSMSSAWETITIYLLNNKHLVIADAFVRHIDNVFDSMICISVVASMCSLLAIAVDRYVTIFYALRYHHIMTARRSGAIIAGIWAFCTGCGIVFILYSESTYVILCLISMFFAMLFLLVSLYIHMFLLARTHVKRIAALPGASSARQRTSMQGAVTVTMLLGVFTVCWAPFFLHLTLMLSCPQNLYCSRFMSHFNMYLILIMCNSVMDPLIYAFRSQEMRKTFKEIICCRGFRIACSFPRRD
Procedure, shortened: as §1

[1] = biological target: T6, Human melanin-concentrating hormone (MCH1) (Homo sapiens, UniProt Q99705); assay: Radioligand binding, human melanin-concentrating hormone MCH1 membranes, FlashPlate, [125I]-S36057; details: compound at 10 μM; for A6 radioligand binding, percentage inhibition: [125I]-S36057
T6 construct: purchased Perkin Elmer Biosignal
T6 sequence (Q99705 whole entry): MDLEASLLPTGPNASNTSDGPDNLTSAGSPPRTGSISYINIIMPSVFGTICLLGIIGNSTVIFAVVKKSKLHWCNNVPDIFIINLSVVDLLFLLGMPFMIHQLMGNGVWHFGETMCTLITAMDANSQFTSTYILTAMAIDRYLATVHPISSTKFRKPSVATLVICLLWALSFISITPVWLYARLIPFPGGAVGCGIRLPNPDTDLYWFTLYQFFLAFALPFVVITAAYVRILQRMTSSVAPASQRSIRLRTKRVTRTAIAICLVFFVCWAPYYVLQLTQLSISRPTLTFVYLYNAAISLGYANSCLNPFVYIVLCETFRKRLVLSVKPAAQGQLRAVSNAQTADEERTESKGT
Procedure, shortened: as §1

Human μ-opioid (MOP) = biological target: T7, Human μ-opioid (MOP) (Homo sapiens, UniProt P35372); assay: Radioligand binding, human μ-opioid (MOP) membranes, FlashPlate, [3H]-Naloxone; details: compound at 10 μM, [3H]-Naloxone
T7 construct: purchased Perkin Elmer Biosignal
T7 sequence (P35372 whole entry): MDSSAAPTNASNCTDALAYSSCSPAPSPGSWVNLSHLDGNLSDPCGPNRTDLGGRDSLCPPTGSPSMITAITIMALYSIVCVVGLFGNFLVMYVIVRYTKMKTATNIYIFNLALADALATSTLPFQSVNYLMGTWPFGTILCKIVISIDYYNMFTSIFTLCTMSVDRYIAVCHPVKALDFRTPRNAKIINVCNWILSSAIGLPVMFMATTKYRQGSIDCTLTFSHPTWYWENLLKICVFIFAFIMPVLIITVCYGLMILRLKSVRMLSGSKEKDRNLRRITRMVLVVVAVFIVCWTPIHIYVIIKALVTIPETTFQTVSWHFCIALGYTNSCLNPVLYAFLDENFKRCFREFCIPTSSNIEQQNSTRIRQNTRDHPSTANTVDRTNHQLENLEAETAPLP
Procedure, shortened: as §1

Human neurokinin (NK1) = biological target: T8, Human neurokinin (NK1) (Homo sapiens, UniProt P25103); assay: Radioligand binding, human neurokinin NK1 membranes, filtration, [125I]-Substance P; details: compound at 10 μM, [125I]-Substance P
T8 construct: purchased Perkin Elmer Biosignal
T8 sequence (P25103 whole entry): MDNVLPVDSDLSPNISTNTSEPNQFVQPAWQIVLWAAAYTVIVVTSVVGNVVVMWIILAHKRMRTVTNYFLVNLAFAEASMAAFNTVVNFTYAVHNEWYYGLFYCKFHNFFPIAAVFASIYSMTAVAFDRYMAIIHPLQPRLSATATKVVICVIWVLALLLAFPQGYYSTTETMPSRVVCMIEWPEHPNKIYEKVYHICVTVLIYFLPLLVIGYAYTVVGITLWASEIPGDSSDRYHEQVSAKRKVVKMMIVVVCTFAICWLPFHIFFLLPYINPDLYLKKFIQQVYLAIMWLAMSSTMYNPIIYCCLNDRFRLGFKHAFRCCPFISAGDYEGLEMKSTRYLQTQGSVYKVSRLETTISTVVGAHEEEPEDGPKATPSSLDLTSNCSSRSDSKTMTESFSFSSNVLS
Procedure, shortened: as §2

[2] = biological target: T9, Human neuropeptide Y (NPY-Y1) (Homo sapiens, UniProt P25929); assay: Radioligand binding, human neuropeptide Y NPY-Y1 membranes, FlashPlate, [125I]-PYY; details: compound at 10 μM, [125I]-PYY
T9 construct: purchased Perkin Elmer Biosignal
T9 sequence (P25929 1-384): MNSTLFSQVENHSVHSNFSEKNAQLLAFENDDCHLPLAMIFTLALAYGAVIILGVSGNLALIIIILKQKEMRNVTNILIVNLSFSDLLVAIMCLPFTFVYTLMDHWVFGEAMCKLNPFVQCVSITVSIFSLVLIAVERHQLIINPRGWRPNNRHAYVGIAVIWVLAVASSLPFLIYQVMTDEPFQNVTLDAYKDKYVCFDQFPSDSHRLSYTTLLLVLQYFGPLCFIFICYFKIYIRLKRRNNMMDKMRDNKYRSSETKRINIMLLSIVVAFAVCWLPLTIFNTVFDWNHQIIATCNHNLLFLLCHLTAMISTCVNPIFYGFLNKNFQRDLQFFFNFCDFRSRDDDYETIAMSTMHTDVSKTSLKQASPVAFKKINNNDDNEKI
Procedure, shortened: as §1

Human opioid (ORL1) = biological target: T10, Human opioid (ORL1) (Homo sapiens, UniProt P41146); assay: Radioligand binding, human opioid ORL1 membranes, FlashPlate, [125I]-Nociceptin; details: compound at 10 μM, [125I]-Nociceptin
T10 construct: purchased Perkin Elmer Biosignal
T10 sequence (P41146 whole entry): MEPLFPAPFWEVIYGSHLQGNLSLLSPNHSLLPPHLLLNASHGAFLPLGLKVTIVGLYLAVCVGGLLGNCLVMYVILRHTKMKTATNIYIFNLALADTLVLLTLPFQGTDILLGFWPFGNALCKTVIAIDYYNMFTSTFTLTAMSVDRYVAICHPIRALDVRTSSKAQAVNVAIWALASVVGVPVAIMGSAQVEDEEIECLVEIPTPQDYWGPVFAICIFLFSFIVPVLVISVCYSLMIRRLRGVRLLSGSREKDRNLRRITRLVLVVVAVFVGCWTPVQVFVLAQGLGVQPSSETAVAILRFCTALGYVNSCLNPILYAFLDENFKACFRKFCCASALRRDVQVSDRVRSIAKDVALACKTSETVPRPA
Procedure, shortened: as §1

Mouse urotensin (mUR2) = biological target: T11, Mouse urotensin (mUR2) (Mus musculus, UniProt Q8VIH9); assay: Radioligand binding, mouse urotensin mUR2 membranes, FlashPlate, [125I]-Urotensin II; details: compound at 10 μM, [125I]-Urotensin II
T11 construct: purchased Perkin Elmer Biosignal
T11 sequence (Q8VIH9 1-385): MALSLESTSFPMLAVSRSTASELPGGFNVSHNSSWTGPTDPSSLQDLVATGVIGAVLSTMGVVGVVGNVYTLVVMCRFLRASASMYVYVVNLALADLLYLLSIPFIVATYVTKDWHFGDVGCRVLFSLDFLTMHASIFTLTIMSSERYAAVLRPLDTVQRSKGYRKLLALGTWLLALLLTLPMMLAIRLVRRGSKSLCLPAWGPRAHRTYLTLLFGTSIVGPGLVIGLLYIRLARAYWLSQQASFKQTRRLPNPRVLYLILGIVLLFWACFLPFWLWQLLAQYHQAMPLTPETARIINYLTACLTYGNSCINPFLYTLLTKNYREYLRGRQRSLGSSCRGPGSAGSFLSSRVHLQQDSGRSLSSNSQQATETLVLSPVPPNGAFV
Procedure, shortened: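 Cloned mouse urotensin (mUR2) receptor membranes from Perkin Elmer Biosignal were immobilized in FlashPlate microplates using a proprietary coating. Each well got 19.5 μl buffer, then 0.5 μl of DMSO, reference ligand, or compound. Adding 5 μl of [125I]-Urotensin II, diluted to 5× final concentration in binding buffer, started binding. Plates were sealed with TopSeal-A and incubated 1 hour at room temperature in the dark. Wells were counted for 30 seconds each on a TopCount after a 60-second delay, and percentage inhibition was calculated.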

T1 sequence (P41143 whole entry): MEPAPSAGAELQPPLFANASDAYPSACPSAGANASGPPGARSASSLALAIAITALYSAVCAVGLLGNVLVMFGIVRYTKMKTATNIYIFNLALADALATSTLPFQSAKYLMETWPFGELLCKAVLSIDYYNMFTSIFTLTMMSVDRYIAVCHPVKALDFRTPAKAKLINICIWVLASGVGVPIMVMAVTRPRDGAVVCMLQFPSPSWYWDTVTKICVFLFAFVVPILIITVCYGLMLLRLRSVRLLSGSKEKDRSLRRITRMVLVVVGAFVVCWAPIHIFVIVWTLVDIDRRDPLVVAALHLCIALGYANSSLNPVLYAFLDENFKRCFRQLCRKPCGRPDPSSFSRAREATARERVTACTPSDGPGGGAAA

SMILES | A1: inhibition of radioligand binding (Human δ-opioid (DOP); human DOP membranes) | A2: inhibition of radioligand binding (Human κ-Opioid (KOP); human KOP membranes) | A3: inhibition of radioligand binding (Human Melanocortin (MC3); human MC3 membranes) | A5: inhibition of radioligand binding (Human melanocortin (MC5); human MC5 membranes) | A7: inhibition of radioligand binding (Human μ-opioid (MOP); human MOP membranes) | A8: inhibition of radioligand binding (Human neurokinin (NK1); human NK1 membranes) | A9: inhibition of radioligand binding ([2]; human NPY-Y1 membranes) | A10: inhibition of radioligand binding (Human opioid (ORL1); human ORL1 membranes) | A11: inhibition of radioligand binding (Mouse urotensin (mUR2); mouse mUR2 membranes) | A1 radioligand binding, percentage inhibition (Human δ-opioid (DOP)) | A2 radioligand binding, percentage inhibition (Human κ-Opioid (KOP)) | A3 radioligand binding, percentage inhibition (Human Melanocortin (MC3)) | A4 radioligand binding, percentage inhibition (Human Melanocortin (MC4)) | A5 radioligand binding, percentage inhibition (Human melanocortin (MC5)) | A6 radioligand binding, percentage inhibition [1] | A7 radioligand binding, percentage inhibition (Human μ-opioid (MOP)) | A8 radioligand binding, percentage inhibition (Human neurokinin (NK1)) | A9 radioligand binding, percentage inhibition [2] | A10 radioligand binding, percentage inhibition (Human opioid (ORL1)) | A11 radioligand binding, percentage inhibition (Mouse urotensin (mUR2)) | further results
NCCC(=O)NC1C(OCc2ccc(Cl)cc2)OC(COCc2ccc3ccccc3c2)C(O)C1OCc1ccc(Cl)cc1 (single isomer, unassigned) [compound 471] | − (“−” indicates less than 50% inhibition at 10 μM) | − (“−” indicates less than 50% inhibition at 10 μM) | + (“+” indicates greater than 50% inhibition at 10 μM) | + (“+” indicates greater than 50% inhibition at 10 μM) | − (“−” indicates less than 50% inhibition at 10 μM) | + (“+” indicates greater than 50% inhibition at 10 μM) | − (“−” indicates less than 50% inhibition at 10 μM) | − (“−” indicates less than 50% inhibition at 10 μM) | − (“−” indicates less than 50% inhibition at 10 μM) |  |  |  |  |  |  |  |  |  |  |  | A4: inhibition of radioligand binding (Human Melanocortin (MC4); human MC4 membranes, 10 µM): − (“−” indicates less than 50% inhibition at 10 μM); A6: inhibition of radioligand binding ([1]; [125I]-S36057, human MCH1 membranes, 10 µM): − (“−” indicates less than 50% inhibition at 10 μM)
COC[C@H]1OC(OCc2ccc(Cl)cc2)[C@H](NC(=O)CCCNC(=N)N)[C@@H](OCc2cccc(O)c2)[C@@H]1O (stereo partly shown) [compound 139] |  |  |  |  |  |  |  |  |  | − (“−” indicates less than 50% inhibition at 10 μM) | − (“−” indicates less than 50% inhibition at 10 μM) | − (“−” indicates less than 50% inhibition at 10 μM) | − (“−” indicates less than 50% inhibition at 10 μM) | − (“−” indicates less than 50% inhibition at 10 μM) | + (“+” indicates greater than 50% inhibition at 10 μM) | + (“+” indicates greater than 50% inhibition at 10 μM) | − (“−” indicates less than 50% inhibition at 10 μM) | − (“−” indicates less than 50% inhibition at 10 μM) | − (“−” indicates less than 50% inhibition at 10 μM) | − (“−” indicates less than 50% inhibition at 10 μM) | 
N=C(N)NCCC(=O)NC1C(OCc2ccc(Cl)cc2)OC(COCc2ccc(Cl)cc2)C(O)C1OCc1ccc(Cl)cc1 (stereo not shown) [compound 428] | − (“−” indicates less than 50% inhibition at 10 μM) | − (“−” indicates less than 50% inhibition at 10 μM) | + (“+” indicates greater than 50% inhibition at 10 μM) | + (“+” indicates greater than 50% inhibition at 10 μM) | − (“−” indicates less than 50% inhibition at 10 μM) | + (“+” indicates greater than 50% inhibition at 10 μM) | − (“−” indicates less than 50% inhibition at 10 μM) | + (“+” indicates greater than 50% inhibition at 10 μM) | − (“−” indicates less than 50% inhibition at 10 μM) |  |  |  |  |  |  |  |  |  |  |  | A4: inhibition of radioligand binding (Human Melanocortin (MC4); human MC4 membranes): + (“+” indicates greater than 50% inhibition at 10 μM); A6: inhibition of radioligand binding ([1]; [125I]-S36057, human MCH1 membranes): + (“+” indicates greater than 50% inhibition at 10 μM)
COCC1OC(OCc2ccccc2)C(NC(=O)CCN)C(OCc2ccc(Cl)cc2)C1O (stereo not shown) [compound 178] |  |  |  |  |  |  |  |  |  | − (“−” indicates less than 50% inhibition at 10 μM) | − (“−” indicates less than 50% inhibition at 10 μM) | − (“−” indicates less than 50% inhibition at 10 μM) | − (“−” indicates less than 50% inhibition at 10 μM) | + (“+” indicates greater than 50% inhibition at 10 μM) | − (“−” indicates less than 50% inhibition at 10 μM) | − (“−” indicates less than 50% inhibition at 10 μM) | + (“+” indicates greater than 50% inhibition at 10 μM) | − (“−” indicates less than 50% inhibition at 10 μM) | − (“−” indicates less than 50% inhibition at 10 μM) | − (“−” indicates less than 50% inhibition at 10 μM) | 
CSC1O[C@H](COCc2ccc3ccccc3c2)[C@@H](O)[C@@H](OCc2ccc(Cl)cc2)[C@H]1NC(=O)CNC(=N)N (stereo partly shown) [compound 281] |  |  |  |  |  |  |  |  |  |  |  |  |  |  |  |  |  |  |  |  | A1: inhibition of radioligand binding (Human δ-opioid (DOP); FlashPlate): − (“−” indicates less than 50% inhibition at 10 μM); A2: inhibition of radioligand binding (Human κ-Opioid (KOP); filtration): − (“−” indicates less than 50% inhibition at 10 μM); A3: inhibition of radioligand binding (Human Melanocortin (MC3); FlashPlate): + (“+” indicates greater than 50% inhibition at 10 μM); A4: inhibition of radioligand binding (Human Melanocortin (MC4); FlashPlate): + (“+” indicates greater than 50% inhibition at 10 μM); A5: inhibition of radioligand binding (Human melanocortin (MC5); FlashPlate): + (“+” indicates greater than 50% inhibition at 10 μM); A6: inhibition of radioligand binding ([1]; [125I]-S36057, FlashPlate): − (“−” indicates less than 50% inhibition at 10 μM); A7: inhibition of radioligand binding (Human μ-opioid (MOP); FlashPlate): − (“−” indicates less than 50% inhibition at 10 μM); A8: inhibition of radioligand binding (Human neurokinin (NK1); filtration): + (“+” indicates greater than 50% inhibition at 10 μM); A9: inhibition of radioligand binding ([2]; FlashPlate): − (“−” indicates less than 50% inhibition at 10 μM); A10: inhibition of radioligand binding (Human opioid (ORL1); FlashPlate): − (“−” indicates less than 50% inhibition at 10 μM); A11: inhibition of radioligand binding (Mouse urotensin (mUR2); FlashPlate): − (“−” indicates less than 50% inhibition at 10 μM)
